Source: paper PMC6302548, “Dual Inhibition of the Lactate Transporters MCT1 and MCT4 Is Synthetic Lethal with Metformin due to NAD+ Depletion in Cancer Cells” (Cell Reports, 2018)
pIC50: −log10 of the molar value.

Tests used:
[1] = molecular target: T1, MCT4 (monocarboxylate transporter 4) (Homo sapiens, UniProt O15427); experiment: intracellular lactate accumulation and 3H-lactate efflux in HAP1 MCT1-KO cells; DARTS in HCT116 membrane extracts; type: cell-based
T1 construct: gene SLC16A3
T1 sequence (O15427 2-465): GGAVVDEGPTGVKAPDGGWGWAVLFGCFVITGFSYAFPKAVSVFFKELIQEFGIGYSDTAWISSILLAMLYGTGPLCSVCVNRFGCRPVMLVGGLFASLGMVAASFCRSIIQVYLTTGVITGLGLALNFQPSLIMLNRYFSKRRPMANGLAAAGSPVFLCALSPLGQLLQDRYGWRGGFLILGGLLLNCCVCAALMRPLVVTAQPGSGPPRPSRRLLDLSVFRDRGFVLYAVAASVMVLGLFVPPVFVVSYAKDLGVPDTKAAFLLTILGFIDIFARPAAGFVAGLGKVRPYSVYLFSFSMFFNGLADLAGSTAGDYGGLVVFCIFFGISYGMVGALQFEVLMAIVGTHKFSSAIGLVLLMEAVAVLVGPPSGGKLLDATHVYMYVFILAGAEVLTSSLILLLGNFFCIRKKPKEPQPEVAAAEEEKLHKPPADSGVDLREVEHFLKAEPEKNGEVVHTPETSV
T1 sequence (P35613 22-385 partner): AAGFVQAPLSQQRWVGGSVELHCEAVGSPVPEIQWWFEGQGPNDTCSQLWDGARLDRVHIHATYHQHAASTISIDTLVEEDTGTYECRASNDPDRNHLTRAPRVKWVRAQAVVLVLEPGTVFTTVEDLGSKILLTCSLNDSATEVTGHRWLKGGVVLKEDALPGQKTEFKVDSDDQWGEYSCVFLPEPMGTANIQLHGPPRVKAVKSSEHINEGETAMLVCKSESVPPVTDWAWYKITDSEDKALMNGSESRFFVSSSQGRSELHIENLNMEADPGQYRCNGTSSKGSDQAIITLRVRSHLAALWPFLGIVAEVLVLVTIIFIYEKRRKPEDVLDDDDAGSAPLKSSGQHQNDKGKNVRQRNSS

[2] = molecular target: T2, MCT1 (monocarboxylate transporter 1) (Homo sapiens, UniProt P53985); experiment: intracellular lactate accumulation and 3H-lactate efflux in HAP1 MCT4-KO cells; DARTS in HCT116 membrane extracts
T2 construct: gene SLC16A1
T2 sequence (P53985 1-500): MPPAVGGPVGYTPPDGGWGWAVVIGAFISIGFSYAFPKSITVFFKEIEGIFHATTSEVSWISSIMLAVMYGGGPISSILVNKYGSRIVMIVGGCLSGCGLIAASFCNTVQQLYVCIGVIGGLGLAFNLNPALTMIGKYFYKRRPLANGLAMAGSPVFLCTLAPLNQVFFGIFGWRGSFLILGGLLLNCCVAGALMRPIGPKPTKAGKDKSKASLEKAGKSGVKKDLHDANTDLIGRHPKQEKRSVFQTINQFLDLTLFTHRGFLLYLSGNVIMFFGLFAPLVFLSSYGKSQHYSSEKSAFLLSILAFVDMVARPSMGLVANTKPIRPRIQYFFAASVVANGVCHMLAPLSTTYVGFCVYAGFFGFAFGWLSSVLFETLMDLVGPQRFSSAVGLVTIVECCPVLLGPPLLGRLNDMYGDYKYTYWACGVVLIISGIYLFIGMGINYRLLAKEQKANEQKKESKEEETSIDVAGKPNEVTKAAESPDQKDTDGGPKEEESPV
T2 sequence (P35613 22-385 partner): T1 sequence (P35613 22-385 partner)

pIC50 [1]: ~7.40
pIC50 [2]: ~5.60
SMILES: CCOC(=O)Oc1c(OC)cc(C(=O)O[C@@H]2C[C@@H]3CN4CCc5c([nH]c6cc(OC)ccc56)[C@H]4C[C@@H]3[C@H](C(=O)OC)[C@H]2OC)cc1OC [Syrosingopine]
